One assay addresses T1, Toll-like receptor 9 (Mus musculus, UniProt Q9EQU3).
T1 sequence (Q9EQU3 whole entry): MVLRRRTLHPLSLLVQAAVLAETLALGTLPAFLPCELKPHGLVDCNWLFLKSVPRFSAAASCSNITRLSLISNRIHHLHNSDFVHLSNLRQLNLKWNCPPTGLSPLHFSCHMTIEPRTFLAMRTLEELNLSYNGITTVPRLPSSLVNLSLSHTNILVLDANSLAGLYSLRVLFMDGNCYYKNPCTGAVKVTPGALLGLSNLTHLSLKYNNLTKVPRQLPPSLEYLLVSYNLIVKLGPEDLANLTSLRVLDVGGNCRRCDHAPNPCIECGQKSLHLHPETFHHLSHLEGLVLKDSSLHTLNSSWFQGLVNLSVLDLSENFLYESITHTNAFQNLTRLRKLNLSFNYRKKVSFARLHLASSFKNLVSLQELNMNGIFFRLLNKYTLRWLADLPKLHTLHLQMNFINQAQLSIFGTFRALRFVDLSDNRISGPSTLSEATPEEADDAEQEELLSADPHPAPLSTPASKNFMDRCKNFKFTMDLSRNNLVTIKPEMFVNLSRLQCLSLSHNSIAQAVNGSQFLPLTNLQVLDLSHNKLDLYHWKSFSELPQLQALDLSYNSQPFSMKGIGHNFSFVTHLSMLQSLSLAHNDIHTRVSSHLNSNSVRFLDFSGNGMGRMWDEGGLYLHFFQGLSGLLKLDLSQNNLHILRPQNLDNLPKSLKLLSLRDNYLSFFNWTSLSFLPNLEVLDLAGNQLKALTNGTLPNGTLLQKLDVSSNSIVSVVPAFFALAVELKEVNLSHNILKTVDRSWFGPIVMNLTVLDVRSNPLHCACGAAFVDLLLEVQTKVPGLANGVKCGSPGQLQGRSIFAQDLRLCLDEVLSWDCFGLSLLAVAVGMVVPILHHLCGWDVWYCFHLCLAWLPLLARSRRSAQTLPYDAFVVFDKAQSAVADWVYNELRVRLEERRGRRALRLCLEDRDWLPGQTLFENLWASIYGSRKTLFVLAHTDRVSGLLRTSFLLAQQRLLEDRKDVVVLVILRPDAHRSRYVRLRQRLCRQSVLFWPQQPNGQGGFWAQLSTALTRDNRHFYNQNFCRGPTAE
The experiment in a line: Antagonist activity at TLR9 in mouse whole blood inhibition of DOTAP-ODN2216-induced IFNalpha production preincubated for 30 mins followed by DOTAP-ODN2216 addition and measured after 20 hrs by ELISA. The assay is classed as tissue-based. In general terms: An ELISA detects its analyte on a solid surface through an enzyme-linked reagent.

The target of a further assay is Cytochrome P450 3A4 (Homo sapiens, UniProt P08684). The experiment in a line: Inhibition of CYP3A4 (unknown origin). Format: ADME.
Another assay deals with T2, Toll-like receptor 1 (Homo sapiens, UniProt Q15399).
T2 sequence (Q15399 whole entry): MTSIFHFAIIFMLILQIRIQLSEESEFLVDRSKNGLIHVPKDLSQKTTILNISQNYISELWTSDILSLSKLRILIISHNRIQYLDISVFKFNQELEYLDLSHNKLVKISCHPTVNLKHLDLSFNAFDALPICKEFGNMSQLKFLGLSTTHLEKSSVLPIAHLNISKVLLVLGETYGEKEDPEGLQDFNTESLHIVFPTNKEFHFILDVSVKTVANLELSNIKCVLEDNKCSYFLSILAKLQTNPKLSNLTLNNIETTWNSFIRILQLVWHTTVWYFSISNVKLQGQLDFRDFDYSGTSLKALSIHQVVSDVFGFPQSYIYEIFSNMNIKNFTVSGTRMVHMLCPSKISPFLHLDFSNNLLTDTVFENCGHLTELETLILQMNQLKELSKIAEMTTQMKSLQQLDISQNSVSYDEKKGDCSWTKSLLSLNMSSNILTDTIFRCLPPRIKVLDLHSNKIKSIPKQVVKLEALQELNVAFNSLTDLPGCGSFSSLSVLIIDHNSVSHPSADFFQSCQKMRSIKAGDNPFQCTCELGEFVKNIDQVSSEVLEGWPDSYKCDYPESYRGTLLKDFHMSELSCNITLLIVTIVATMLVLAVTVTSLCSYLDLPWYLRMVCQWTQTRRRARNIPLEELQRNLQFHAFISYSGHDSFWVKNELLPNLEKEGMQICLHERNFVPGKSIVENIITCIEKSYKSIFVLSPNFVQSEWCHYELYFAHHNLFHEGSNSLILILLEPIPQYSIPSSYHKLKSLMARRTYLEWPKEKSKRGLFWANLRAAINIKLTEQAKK
Description: Antagonist activity at TLR1 in human PBMC assessed as inhibition of Pam3CSK4-induced TNFalpha production preincubated for 30 mins followed by Pam3CSK4 addition and measured after 20 hrs by HTRF assay. Format: cell-based. (TR-FRET usually uses a lanthanide donor and a delayed reading to cut background.)

In assay [1] the target is T3, Interleukin-1 receptor type 1 (Homo sapiens, UniProt P14778).
T3 sequence (P14778 whole entry): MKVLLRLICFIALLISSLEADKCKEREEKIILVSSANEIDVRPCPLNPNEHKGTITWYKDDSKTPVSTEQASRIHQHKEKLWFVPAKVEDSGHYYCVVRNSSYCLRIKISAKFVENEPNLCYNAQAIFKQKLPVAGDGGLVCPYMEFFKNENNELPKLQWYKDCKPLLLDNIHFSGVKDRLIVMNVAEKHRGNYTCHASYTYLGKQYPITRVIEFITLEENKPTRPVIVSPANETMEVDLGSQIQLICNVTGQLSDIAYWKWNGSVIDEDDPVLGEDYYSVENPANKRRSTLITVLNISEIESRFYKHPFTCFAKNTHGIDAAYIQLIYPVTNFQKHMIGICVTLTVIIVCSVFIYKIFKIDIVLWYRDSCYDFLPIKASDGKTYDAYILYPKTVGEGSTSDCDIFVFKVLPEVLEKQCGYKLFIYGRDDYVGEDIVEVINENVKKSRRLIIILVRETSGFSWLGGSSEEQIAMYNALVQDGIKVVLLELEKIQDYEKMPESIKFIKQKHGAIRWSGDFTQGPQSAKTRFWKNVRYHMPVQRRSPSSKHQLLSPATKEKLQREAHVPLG
The experiment in a line: Antagonist activity at IL1R in human PBMC assessed as inhibition of IL1beta-induced TNFalpha production preincubated for 30 mins followed by IL1beta addition and measured after 20 hrs by HTRF assay. The assay is classed as cell-based.

This passage reports IC50 results from ChEMBL document CHEMBL4619804, “Target-Based Identification and Optimization of 5-Indazol-5-yl Pyridones as Toll-like Receptor 7 and 8 Antagonists Using a Biochemical TLR8 Antagonist Competition Assay” (J Med Chem, 2020).

Chain of Cytochrome P450 3A4 (P08684 whole entry): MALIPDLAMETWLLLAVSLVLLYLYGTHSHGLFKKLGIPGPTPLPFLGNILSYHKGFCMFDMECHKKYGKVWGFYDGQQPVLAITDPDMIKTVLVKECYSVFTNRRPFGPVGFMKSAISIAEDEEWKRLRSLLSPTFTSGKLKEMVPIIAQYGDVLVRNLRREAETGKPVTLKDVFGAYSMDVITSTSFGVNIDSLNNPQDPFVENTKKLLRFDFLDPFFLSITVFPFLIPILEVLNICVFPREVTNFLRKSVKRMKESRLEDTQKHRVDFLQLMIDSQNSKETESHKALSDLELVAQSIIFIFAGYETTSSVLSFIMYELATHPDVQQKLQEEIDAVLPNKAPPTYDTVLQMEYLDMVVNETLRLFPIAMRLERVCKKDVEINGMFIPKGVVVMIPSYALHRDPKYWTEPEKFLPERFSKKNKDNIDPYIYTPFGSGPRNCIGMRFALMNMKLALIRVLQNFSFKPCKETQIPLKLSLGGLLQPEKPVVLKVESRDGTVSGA

Take `O=c1ccc(-c2cc(C(F)(F)F)c3nn([C@H]4CCNC[C@@H]4F)cc3c2)c2n1CCC2`: the 50% inhibitory concentration (IC50) – broadly, the concentration at which inhibition is half-maximal – at Toll-like receptor 9 is greater than 10 µM; at Cytochrome P450 3A4, greater than 25 µM; at Toll-like receptor 1, greater than 6.5 µM; in assay [1], greater than 6.5 µM.
